Consider 23 molecules from patent US11306078B2, “Piperidine CXCR7 receptor modulators” (IDORSIA PHARMACEUTICALS LTD., priority 2016, dated 2022).

Broadly, the IC50 is the concentration at which inhibition is half-maximal. A lower IC50 goes with greater potency in that assay.

This experiment has as its target human chemokine receptor CXCR7 (Homo sapiens (Human), UniProt P25106). The experiment is described as follows: Tango CXCR7-bla U2OS beta-arrestin recruitment assay (beta-lactamase reporter, FRET), antagonism of CXCL12/SDF1-α.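 Note: compounds preincubated 15 min before CXCL12 addition, then 22 h at 37 °C, FRET emission ratio read with CCF4-AM substrate after 2 h.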 The note with it: antagonistic effect on CXCR7; Tango CXCR7-bla U2OS cells, CXCL12/SDF1-α at its EC80. The experiment is classed as cell-based. In general terms: Recruitment of arrestin is a read-out of receptor activation apart from second messengers.

Sequence of human chemokine receptor CXCR7 (P25106 whole entry): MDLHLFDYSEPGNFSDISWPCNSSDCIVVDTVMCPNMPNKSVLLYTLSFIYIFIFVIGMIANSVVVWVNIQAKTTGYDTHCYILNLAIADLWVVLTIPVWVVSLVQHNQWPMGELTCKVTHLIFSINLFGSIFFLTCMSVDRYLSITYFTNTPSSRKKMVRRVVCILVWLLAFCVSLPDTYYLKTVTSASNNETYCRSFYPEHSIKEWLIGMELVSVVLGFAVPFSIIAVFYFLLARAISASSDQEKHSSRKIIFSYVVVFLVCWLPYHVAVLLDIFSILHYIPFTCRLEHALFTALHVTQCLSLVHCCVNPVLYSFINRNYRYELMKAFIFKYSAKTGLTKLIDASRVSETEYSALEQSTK

`C[C@@H](NC(=O)[C@@H]1CN(C2CCCC2)CC[C@H]1NC(=O)c1cn(-c2ccc(F)cc2F)nn1)c1cnccn1` (relative stereo) [Example 1.128, (3R*,4R*)-1-Cyclopentyl-4-{[1-(2,4-difluoro-phenyl)-1H-[1,2,3]triazole-4-carbonyl]-amino}-piperidine-3-carboxylic acid ((R)-1-pyrazin-2-yl-ethyl)-amide]: inhibition was half-maximal at 124 nM (IC50).

As for `C[C@@H](NC(=O)[C@@H]1CN(CC2CC2)CC[C@H]1NC(=O)c1cc(-c2c(F)cc(F)cc2F)on1)c1cnccn1` (relative stereo) [Example 1.131, (3R*,4R*)-1-Cyclopropylmethyl-4-{[5-(2,4,6-trifluoro-phenyl)-isoxazole-3-carbonyl]-amino}-piperidine-3-carboxylic acid ((R)-1-pyrazin-2-yl-ethyl)-amide], the 50% inhibitory concentration (IC50) came out at 102 nM. Consider `C[C@@H]1CCC[C@H]1N1CC[C@@H](NC(=O)c2cc(-c3c(F)cc(F)cc3F)on2)[C@H](C(=O)N[C@H](C)c2cnccn2)C1` (relative stereo) [Example 1.132, (3R*,4R*)-1-((1RS,2RS)-2-Methyl-cyclopentyl)-4-{[5-(2,4,6-trifluoro-phenyl)-isoxazole-3-carbonyl]-amino}-piperidine-3-carboxylic acid ((R)-1-pyrazin-2-yl-ethyl)-amide], for which half-maximal inhibition (IC50) required 410 nM. This IC50 lies about 4-fold higher than the previous one.

The molecule `C[C@@H](NC(=O)[C@@H]1CN(C2CCCCC2)CC[C@H]1NC(=O)c1cc(-c2ccc(F)cc2F)no1)c1cnccn1` (relative stereo) [Example 1.133, (3R*,4R*)-1-Cyclohexyl-4-{[3-(2,4-difluoro-phenyl)-isoxazole-5-carbonyl]-amino}-piperidine-3-carboxylic acid ((R)-1-pyrazin-2-yl-ethyl)-amide] gave an IC50 of 594 nM. Molecule `C[C@@H](NC(=O)[C@@H]1CN(C2CCCCC2)CC[C@H]1NC(=O)c1cn(-c2ccc(F)cc2F)nn1)C1CCC1` (relative stereo) [Example 1.134, (3R*,4R*)-1-Cyclohexyl-4-{[1-(2,4-difluoro-phenyl)-1H-[1,2,3]triazole-4-carbonyl]-amino}-piperidine-3-carboxylic acid ((R)-1-cyclobutyl-ethyl)-amide] showed an IC50 of 266 nM. `C[C@@H](NC(=O)[C@@H]1CN(C2CCCC2)CC[C@H]1NC(=O)c1cn(-c2ccc(F)cc2F)nn1)C1CCC1` (relative stereo) [Example 1.135, (3R*,4R*)-1-Cyclopentyl-4-{[1-(2,4-difluoro-phenyl)-1H-[1,2,3]triazole-4-carbonyl]-amino}-piperidine-3-carboxylic acid ((R)-1-cyclobutyl-ethyl)-amide] came in with a half-maximal inhibitory concentration (IC50) of 592 nM.

As to `C[C@@H](NC(=O)[C@@H]1CN(CC2CC2)CC[C@H]1NC(=O)c1cn(-c2ccc(F)cc2F)nn1)C1CCC1` (relative stereo) [Example 1.136, (3R*,4R*)-1-Cyclopropylmethyl-4-{[1-(2,4-difluoro-phenyl)-1H-[1,2,3]triazole-4-carbonyl]-amino}-piperidine-3-carboxylic acid ((R)-1-cyclobutyl-ethyl)-amide], it took 202 nM to reach half-maximal inhibition (IC50). Take `C[C@@H]1CCC[C@H]1N1CC[C@@H](NC(=O)c2cn(-c3ccc(F)cc3F)nn2)[C@H](C(=O)N[C@H](C)C2CCC2)C1` (relative stereo) [Example 1.137, (3R*,4R*)-4-{[1-(2,4-Difluoro-phenyl)-1H-[1,2,3]triazole-4-carbonyl]-amino}-1-((1RS,2RS)-2-Methyl-cyclopentyl)-piperidine-3-carboxylic acid ((R)-1-cyclobutyl-ethyl)-amide]: the IC50 came out at 919 nM. To `C[C@@H](NC(=O)[C@@H]1CN(CC2CC2)CC[C@H]1NC(=O)c1cc(-c2c(F)cc(F)cc2F)on1)C1CCC1` (relative stereo) [Example 1.139, (3R*,4R*)-1-Cyclopropylmethyl-4-{[5-(2,4,6-trifluoro-phenyl)-isoxazole-3-carbonyl]-amino}-piperidine-3-carboxylic acid ((R)-1-cyclobutyl-ethyl)-amide] belongs 50 nM. The molecule `C[C@@H](NC(=O)[C@@H]1CN(C2CCCC2)CC[C@H]1NC(=O)c1cc(-c2ccc(F)cc2F)no1)C1CCC1` (relative stereo) [Example 1.141, (3R*,4R*)-1-Cyclopentyl-4-{[3-(2,4-difluoro-phenyl)-isoxazole-5-carbonyl]-amino}-piperidine-3-carboxylic acid ((R)-1-cyclobutyl-ethyl)-amide] showed a concentration for half-maximal inhibition (IC50) of 379 nM. To `C[C@@H](NC(=O)[C@@H]1CN(CC2CC2)CC[C@H]1NC(=O)c1cc(-c2ccc(F)cc2F)no1)c1ccccn1` (relative stereo) [Example 1.154, (3R*,4R*)-1-Cyclopropylmethyl-4-{[3-(2,4-difluoro-phenyl)-isoxazole-5-carbonyl]-amino}-piperidine-3-carboxylic acid ((R)-1-pyridin-2-yl-ethyl)-amide] belongs 54 nM. The result for `C[C@@H]1CCC[C@H]1N1CC[C@@H](NC(=O)c2cc(-c3ccc(F)cc3F)no2)[C@H](C(=O)N[C@H](C)c2ccccn2)C1` (relative stereo) [Example 1.155, (3R*,4R*)-4-{[3-(2,4-Difluoro-phenyl)-isoxazole-5-carbonyl]-amino}-1-((1RS,2RS)-2-methyl-cyclopentyl)-piperidine-3-carboxylic acid ((R)-1-pyridin-2-yl-ethyl)-amide] reads 315 nM; that for `C[C@@H](NC(=O)[C@@H]1CN(C2CCCCC2)CC[C@H]1NC(=O)c1noc(-c2ccc(F)cc2F)n1)c1ccccn1` (relative stereo) [Example 1.156, (3R*,4R*)-1-Cyclohexyl-4-{[5-(2,4-difluoro-phenyl)-[1,2,4]oxadiazole-3-carbonyl]-amino}-piperidine-3-carboxylic acid ((R)-1-pyridin-2-yl-ethyl)-amide], 92 nM; that for `C[C@@H](NC(=O)[C@@H]1CN(C2CCCC2)CC[C@H]1NC(=O)c1noc(-c2ccc(F)cc2F)n1)c1ccccn1` (relative stereo) [Example 1.157, (3R*,4R*)-1-Cyclopentyl-4-{[5-(2,4-difluoro-phenyl)-[1,2,4]oxadiazole-3-carbonyl]-amino}-piperidine-3-carboxylic acid ((R)-1-pyridin-2-yl-ethyl)-amide], 131 nM. `C[C@@H](NC(=O)[C@@H]1CN(CC2CC2)CC[C@H]1NC(=O)c1noc(-c2ccc(F)cc2F)n1)c1ccccn1` (relative stereo) [Example 1.158, (3R*,4R*)-1-Cyclopropylmethyl-4-{[5-(2,4-difluoro-phenyl)-[1,2,4]oxadiazole-3-carbonyl]-amino}-piperidine-3-carboxylic acid ((R)-1-pyridin-2-yl-ethyl)-amide] showed a 50% inhibitory concentration (IC50) of 82 nM. `C[C@@H](NC(=O)[C@@H]1CN(CC2CC2)CC[C@H]1NC(=O)c1cc(-c2ccc(F)cc2F)no1)c1cnccn1` (relative stereo) [Example 1.159, (3R*,4R*)-1-Cyclopropylmethyl-4-{[3-(2,4-difluoro-phenyl)-isoxazole-5-carbonyl]-amino}-piperidine-3-carboxylic acid ((R)-1-pyrazin-2-yl-ethyl)-amide]: half-maximal inhibition (IC50) was put at 818 nM. Consider `C[C@@H](NC(=O)[C@@H]1CN(CC2CC2)CC[C@H]1NC(=O)c1cc(-c2ccc(F)cc2F)no1)C1CCC1` (relative stereo) [Example 1.161, (3R*,4R*)-1-Cyclopropylmethyl-4-{[3-(2,4-difluoro-phenyl)-isoxazole-5-carbonyl]-amino}-piperidine-3-carboxylic acid ((R)-1-cyclobutyl-ethyl)-amide], for which the IC50 is 105 nM. As for `C[C@@H]1CCC[C@H]1N1CC[C@@H](NC(=O)c2cc(-c3ccc(F)cc3F)no2)[C@H](C(=O)N[C@H](C)C2CCC2)C1` (relative stereo) [Example 1.162, (3R*,4R*)-4-{[3-(2,4-Difluoro-phenyl)-isoxazole-5-carbonyl]-amino}-1-((1RS,2RS)-2-Methyl-cyclopentyl)-piperidine-3-carboxylic acid ((R)-1-cyclobutyl-ethyl)-amide], the half-inhibitory concentration (IC50) was found to be 638 nM. This IC50 lies about 6.1-fold higher than the previous one. The molecule `C[C@@H]1CCC[C@H]1N1CC[C@@H](NC(=O)c2cn(-c3ccc(F)cc3F)nn2)[C@H](C(=O)NC2(c3ccccn3)CC2)C1` (relative stereo) [Example 1.168, (3R*,4R*)-4-{[1-(2,4-Difluoro-phenyl)-1H-[1,2,3]triazole-4-carbonyl]-amino}-1-((1RS,2RS)-2-Methyl-cyclopentyl)-piperidine-3-carboxylic acid (1-pyridin-2-yl-cyclopropyl)-amide] returned an IC50 of 728 nM. The IC50 values of the last two molecules are within 1.5-fold of each other.

Molecule `C[C@@H]1CCC[C@H]1N1CC[C@@H](NC(=O)c2cc(-c3c(F)cc(F)cc3F)on2)[C@H](C(=O)NC2(c3ccccn3)CC2)C1` (relative stereo) [Example 1.172, (3R*,4R*)-1-((1RS,2RS)-2-Methyl-cyclopentyl)-4-{[5-(2,4,6-trifluoro-phenyl)-isoxazole-3-carbonyl]-amino}-piperidine-3-carboxylic acid (1-pyridin-2-yl-cyclopropyl)-amide] returned a half-maximal inhibitory concentration (IC50) of 72 nM. Molecule `C[C@@H]1CCC[C@H]1N1CC[C@@H](NC(=O)c2cc(-c3ccc(F)cc3F)no2)[C@H](C(=O)NC2(c3ccccn3)CC2)C1` (relative stereo) [Example 1.175, (3R*,4R*)-4-{[3-(2,4-Difluoro-phenyl)-isoxazole-5-carbonyl]-amino}-1-((1RS,2RS)-2-Methyl-cyclopentyl)-piperidine-3-carboxylic acid (1-pyridin-2-yl-cyclopropyl)-amide] had an IC50 of 673 nM. `C[C@@H](NC(=O)[C@]1(C)CN(C2CCCCC2)CC[C@H]1NC(=O)c1cc(-c2ccc(F)cc2F)on1)c1ccccn1` (relative stereo) [Example 5.001, (3R*,4R*)-1-Cyclohexyl-4-{[5-(2,4-difluoro-phenyl)-isoxazole-3-carbonyl]-amino}-3-methyl-piperidine-3-carboxylic Acid ((R)-1-pyridin-2-yl-ethyl)-amide] registered a 50% inhibitory concentration (IC50) of 368 nM. `O=C(N[C@@H]1CCN(C2CCCCC2)C[C@H]1C(=O)N[C@H]1C[C@@H]1c1ccccc1)c1cc(-c2c(F)cc(F)cc2F)on1` (single isomer, unassigned) [Example 1.046a] gave an IC50 of 474 nM.
